The test system of one assay is HeLa cells. The assay is described as follows: MTS cell proliferation and/or cytotoxicity assay. Type of assay: cell-based, Human. How it is done:
Cell culture. Human cervical epithelial cells (HeLa cells) were obtained from American Type Culture Collection (Manassas, Va.). Cells were grown in Eagle's minimum essential medium (MEM, Hyclone, Utah) supplemented with 2 mM Glutamine, 0.1 mM nonessential amino acid, 1 mM Na Pyruvate, 1.5 g/L NaHCO3, 50 mg/L gentamicin, and 10% fetal bovine serum (Hyclone, USA) in a humidified atmosphere of 5% CO2 at 37° C.
MTS assays. Antiproliferative effects of the compounds were tested by the CellTiter 96 AQueous assay (Promega, WI), which is a calorimetric assay for determining the number of viable cells. (See, e.g., Wang, L., et al., Methods Cell Sci (1996) 18:249-255). In one example, cells (4,500 cells/well) were seeded on 96 well flat bottom plates (Corning, N.Y.) in 100 μl of culture medium without any anticancer drug on day 0, and the culture medium was exchanged for that //contained anticancer drugs at various concentrations on day 1. After incubation for 3 days under normal growth conditions (on day 4), the monolayers were washed once in PBS, and the medium was switched to 100 μl of PBS in each of the 96 well plate. After mixing MTS and PMS at the ratio of 20:1, 20 μl of MTS/PMS solution was added to each of the 96 well plate and incubated for 4 hours in a humidified atmosphere of 5% CO2 at 37° C. The absorbance was read at 490 nm using FLUOstar Galaxy 96 well plate reader (BMG Labtechnologies, Germany). μM concentrations (MTS data) reported in Table 1 are concentrations at which 50% of antiproliferative cell response is seen.

Assay [1] has as its target c-Myc template DNA (c-myc quadruplex). As to the kind of experiment: Quadruplex binding / stop assay (Taq polymerase arrest, capillary electrophoresis). Particulars: for IC50: read-out: Stop Data c-Myc μM, concentration at which 50% of the DNA was arrested (arrested:full-length 1:1); for pIC50: read-out: S DATA, Table 1D, stop assay data.
The mark [2] stands for this setting: Homo sapiens, HeLa, 72 h, concentration at which 50% of antiproliferative cell response is seen, 3 days incubation, read-out: MTS Data Hella.
Where [3] appears, read: Homo sapiens, HeLa, HeLa cells, MTS, read-out: Hela MTS.
[4] abbreviates: concentration at which 50% of antiproliferative cell response is seen, 3 days incubation, read-out: MTS Data Hella.

This passage reports IC50 results from patent US7507727B2, “Substituted quinobenzoxazine analogs and methods of using thereof” (Cylene Pharmaceuticals, Inc., priority 2003, dated 2009).

Each structure is given as a SMILES string. pIC50: −log10 of the molar value. Like-named read-outs stand apart in the source and are kept apart here.

Take `CN1CCN(CCCNC(=O)c2cn3c4c(c(N5CCC(NC(=O)OC(C)(C)C)C5)c(F)cc4c2=O)Oc2cc4c(cc2-3)oc2ccccc24)CC1` (stereo not shown) [compound 383]: the pIC50 in the assay on HeLa cells (setting [2]) is 6.43. In addition, in assay [1], the IC50 is 0.75 µM.
For `CN(C)CC(C)(C)CNC(=O)c1cn2c3c(c(N4CCC(N)C4)c(F)cc3c1=O)Oc1cc3ccccc3cc1-2` (stereo not shown) [compound 531], in that order: 6.32 and 0.375 µM.
The corresponding values for `CN1CCN(CCCNC(=O)c2cn3c4cc5c(cc4oc4c(N6CC[C@H](N)C6)c(F)cc(c2=O)c43)c(=O)c2ccccc25)CC1` [compound 520] are 5.72 and 0.375 µM.
The corresponding values for `O=C(NCCN1CCCC1)c1cn2c3cc4oc5cc([N+](=O)[O-])ccc5[nH]c4cc3oc3c(NCCN4CCCC4)c(F)cc(c1=O)c32` [compound 479] are 5.13 and 0.5 µM.
With `CN1CCCC1CCNC(=O)c1cn2c3c(c(NC4CN5CCC4CC5)c(F)cc3c1=O)Oc1cc3ccccc3cc1-2` (stereo not shown) [compound 486], the pIC50 with HeLa cells (setting [2]) is 6.41. For the same molecule, the IC50 in assay [1] worked out at 0.5 µM.
The corresponding values for `CCN(CC)CCCC(C)NC(=O)c1cn2c3c(c(N4CCC(N)C4)c(F)cc3c1=O)Oc1cc3ccccc3cc1-2` (stereo not shown) [compound 542] are 6.64 and 0.375 µM.
The corresponding values for `CN(C)CCCCNC(=O)c1cn2c3cc4c(cc3oc3c(NCCN5CCCC5)c(F)cc(c1=O)c32)c(=O)c1ccccc14` [compound 584] are 6.72 and 0.18 µM.
For `N[C@@H]1CCN(c2c(F)cc3c(=O)c(C(=O)NCCN4CCCC4)cn4c3c2Oc2cc3ccccc3cc2-4)C1` [compound 565], in that order: 6.70 and 0.25 µM.
For `O=C(NCCCN1CCOCC1)c1cn2c3cc4c(=O)c5ccccc5c(=O)c4cc3oc3c(NCCN4CCCC4)c(F)cc(c1=O)c32` [compound 591], the pIC50 with HeLa cells (setting [2]) was 5.48. The IC50 in assay [1] was 0.13 µM.
The corresponding values for `O=C(NCCN1CCCC1)c1cn2c3c(c(N4CCC(c5cnccn5)C4)ccc3c1=O)Oc1cc3ccccc3cc1-2` (stereo not shown) [compound 303] are 5.68 and 1.5 µM.
For `O=C(NCCC1CCCN1)c1cn2c3c(c(NCCCN4CCOCC4)c(F)cc3c1=O)Oc1cc3c(cc1-2)oc1ccccc13` (stereo not shown) [compound 562], in that order: 6.07 and 0.32 µM.
For `O=C(NCCN1CCOCC1)c1cn2c3c(c(NCCCN4CCOCC4)c(F)cc3c1=O)Oc1cc3c(cc1-2)oc1ccccc13` [compound 361], in that order: 5.38 and 0.75 µM.
As to `CN1CCC(Nc2c(F)cc3c(=O)c(C(=O)NCCC4CCCN4C)cn4c3c2Oc2cc3ccccc3cc2-4)CC1` (stereo not shown) [compound 1690], the pIC50 is 6.51 with HeLa cells (setting [3]) and 6.12 in assay [1].
On to `O=C(NCCN1CCOCC1)c1cn2c3c(c(N4CC5CCCNC5C4)c(F)cc3c1=O)Oc1cc3ccccc3cc1-2` (stereo not shown) [compound 566], for which the pIC50 in the assay with HeLa cells (setting [2]) is 7.52. Also, in assay [1], the IC50 was determined as 0.25 µM.
With `CN(C)CCCCNc1c(F)cc2c(=O)c(C(=O)NCCCn3ccnc3)cn3c2c1Oc1cc2c(cc1-3)oc1ccccc12` [compound 509], in the assay on HeLa cells (setting [2]), the pIC50 is 5.51. Besides, the IC50 in assay [1] turned out to be 0.375 µM.
For `O=C(CCN1CCCCC1)N[C@@H]1CCN(c2c(F)cc3c(=O)c(C(=O)NCCN4CCCC4)cn4c3c2Oc2cc3c(cc2-4)oc2ccccc23)C1` [compound 308], in that order: 5.51 and 1 µM.
The corresponding values for `CN1CCN(CC(=O)N[C@@H]2CCN(c3c(F)cc4c(=O)c(C(=O)NCCN5CCCC5)cn5c4c3Oc3cc4c(cc3-5)oc3ccccc34)C2)CC1` [compound 505] are 5.47 and 0.375 µM.
Take `CN(C)c1cccc(CNc2c(F)cc3c(=O)c(C(=O)NCCC4CCCN4C)cn4c3c2Oc2cc3ccccc3cc2-4)c1` (stereo not shown) [compound 1688]: the pIC50 in the assay with HeLa cells (setting [3]) is 6.60; in assay [1] it was 6.12.
As to `Nc1c(F)c(N2CCC(N)C2)c2c3c1c(=O)c(C(=O)O)cn3-c1cc3ccccc3cc1O2` (stereo not shown) [compound 5], in the assay with HeLa cells (setting [2]), the pIC50 is 5.14. Also, the IC50 in assay [1] came out at 1.75 µM.
Take `O=C(NCCCN1CCOCC1)c1cn2c3c(c(N4CC5CCCNC5C4)c(F)cc3c1=O)Oc1cc3ccccc3cc1-2` (stereo not shown) [compound 1637]: the figures for the pIC50 (in the assay with HeLa cells (setting [3]); in assay [1]) were 7.00 and 6.43, respectively.
In the case of `NC(N)=NCCCNC(=O)c1cn2c3c(c(N4CC[C@@H](N)C4)c(F)cc3c1=O)Oc1cc3ccccc3cc1-2` [compound 512], the pIC50 in the assay on HeLa cells (setting [2]) is 5.51. Also, the IC50 in assay [1] worked out at 0.375 µM.
For `CN1CCN(CCC(=O)N[C@@H]2CCN(c3c(F)cc4c(=O)c(C(=O)NCCN5CCCC5)cn5c4c3Oc3cc4c(cc3-5)oc3ccccc34)C2)CC1` [compound 533], in that order: 6.40 and 0.375 µM.
The corresponding values for `CN(C)CCCCNC(=O)c1cn2c3c(c(N4CC[C@H](N)C4)c(F)cc3c1=O)Oc1ccccc1-2` [compound 108] are 6.34 and 1.75 µM.
The corresponding values for `CCN(CC)CCCC(C)NC(=O)c1cn2c3c(c(N4CCC(c5cnccn5)C4)ccc3c1=O)Oc1cc3ccccc3cc1-2` (stereo not shown) [compound 309] are 5.52 and 1 µM.
For `CN(C)CC(C)(C)CNC(=O)c1cn2c3c(c(N4CC5CCCNC5C4)c(F)cc3c1=O)Oc1cc3ccccc3cc1-2` (stereo not shown) [compound 493], the pIC50 in the assay on HeLa cells (setting [2]) is 6.40. Moreover, in assay [1], the IC50 is 0.44 µM.
The corresponding values for `CN(C)CCCCNC(=O)c1cn2c3c(c(N4CC5CCCNC5C4)c(F)cc3c1=O)Oc1cc3ccccc3cc1-2` (stereo not shown) [compound 548] are 7.00 and 0.375 µM.
The corresponding values for `CN1CCCC1CCNC(=O)c1cn2c3c(c(NCC4(O)CCCCC4)c(F)cc3c1=O)Oc1cc3ccccc3cc1-2` (stereo not shown) [compound 391] are 6.62 and 0.75 µM.
For `CN1CCCC1CCNC(=O)c1cn2c3c(c(NCCCN4CCCC4=O)c(F)cc3c1=O)Oc1cc3ccccc3cc1-2` (stereo not shown) [compound 102], in that order: 5.66 and 1.8 µM.
Regarding `CCN(CC)C1CCN(c2c(F)cc3c(=O)c(C(=O)NCCC4CCCN4C)cn4c3c2Oc2cc3ccccc3cc2-4)C1` (stereo not shown) [compound 105], in the assay on HeLa cells (setting [2]), the pIC50 is 5.55. Moreover, in assay [1], the IC50 was 1.75 µM.
For `CN1CCCC1CCNC(=O)c1cn2c3c(c(N4CC[C@@H](N)C4)c(F)cc3c1=O)Oc1cc3ccccc3cc1-2` (stereo partly shown) [compound 564], in that order: 6.54 and 0.25 µM.
As for `CN1CCCC1CCNC(=O)c1cn2c3c(c(NCCCN4CCOCC4)c(F)c(N)c3c1=O)Oc1cc3ccccc3cc1-2` (stereo not shown) [compound 380], in the assay with HeLa cells (setting [2]), the pIC50 was 5.74. The IC50 in assay [1] is 0.75 µM.
As to `CN1CCCC1CCNC(=O)c1cn2c3c(c(N[C@H]4CN5CCC4CC5)c(F)cc3c1=O)Oc1cc3ccccc3cc1-2` (stereo partly shown) [compound 536], the pIC50 in the assay with HeLa cells (setting [2]) is 6.51. For the same molecule, the IC50 in assay [1] is 0.375 µM.
The corresponding values for `COc1ccc(CCNc2c(F)cc3c(=O)c(C(=O)NCCC4CCCN4C)cn4c3c2Oc2cc3ccccc3cc2-4)cc1OC` (stereo not shown) [compound 310] are 5.64 and 1 µM.
The corresponding values for `N[C@@H]1CCN(c2c(F)cc3c(=O)c(C(=O)NCCN4CCOCC4)cn4c3c2Oc2cc3ccccc3cc2-4)C1` [compound 390] are 6.62 and 0.75 µM.
As for `CN1CCCC1CCNC(=O)c1cn2c3c(c(N4CCC(N)C4)c(F)cc3c1=O)Oc1cc3ccccc3cc1-2` (stereo not shown) [compound 540], the pIC50 in the assay on HeLa cells (setting [4]) is 6.57. Also, the IC50 in assay [1] was 0.375 µM.
As to `CN(C)CCCCNc1c(F)cc2c(=O)c(C(=O)NCCN3CCCC3)cn3c4cc5c(cc4oc1c23)c(=O)c1ccccc15` [compound 515], the pIC50 in the assay on HeLa cells (setting [2]) is 5.60. In assay [1], the IC50 was found to be 0.375 µM.
For the molecule `CN(C)CCCCNC(=O)c1cn2c3c(c(N4CC[C@@H](NC(=O)CCN5CCCCC5)C4)c(F)cc3c1=O)Oc1cc3c(cc1-2)oc1ccccc13` [compound 507], the pIC50 with HeLa cells (setting [2]) was 5.48. Moreover, the IC50 in assay [1] worked out at 0.375 µM.
For `CN1CCN(CCC(=O)N[C@@H]2CCN(c3c(F)cc4c(=O)c(C(=O)NCCC5CCCN5C)cn5c4c3Oc3cc4c(cc3-5)oc3ccccc34)C2)CC1` (stereo partly shown) [compound 360], in that order: 5.35 and 0.75 µM.
In the case of `O=C(NCCN1CCCC1)c1cn2c3c(c(N4CC5CCCNC5C4)c(F)cc3c1=O)Oc1cc3ccccc3cc1-2` (stereo not shown) [compound 581], the pIC50 in the assay on HeLa cells (setting [4]) is 6.52. The IC50 in assay [1] stood at 0.18 µM.
As for `CN1CCCC1CCNC(=O)c1cn2c3c(c(NCCc4c[nH]cn4)c(F)cc3c1=O)Oc1cc3ccccc3cc1-2` (stereo not shown) [compound 1657], the figures for the pIC50 (with HeLa cells (setting [3]); in assay [1]) were 6.30 and 6.43, respectively.
As for `CN1CCCC1CCNC(=O)c1cn2c3c(c(NCCC4CCCN4C)c(F)cc3c1=O)Oc1cc3c(cc1-2)oc1ccccc13` (stereo not shown) [compound 372], the pIC50 in the assay on HeLa cells (setting [2]) is 5.47. Moreover, the IC50 in assay [1] was found to be 0.75 µM.
